# From patent publication US8476287B2, “3-hydroxy-5-arylisothiazole derivative” (Mochida Pharmaceutical Co., Ltd., priority 2009, dated 2013)
# Molecular target: T1, GPR40 of human origin (Homo sapiens, UniProt O14842)
# T1 construct: expressed in transfected cells
# Experiment: Agonist action on GPR40 of human origin (Ca2+ fluorescence in CHO cells)
# Format: cell-based
# Details: CHO cell strain stably expressing GPR40 of human origin; Ca2+ concentration fluctuation, fluorescent calcium indicator
# Description: A CHO cell strain stably expressing GPR40 of human origin was used to determine the agonist action of a subject compound. This cell strain was seeded in a clear bottom 96 well plate at 4×10^4 cells/100 μL/well. The cell strain was cultured in a CO2 incubator overnight using a Ham's F-12 medium containing a 10% fetal bovine serum, 100 U/mL penicillin, 0.1 mg/mL streptomycin, and 400 μg/mL Geneticin. Calcium 4 Assay Kit (Molecular Devices) was used as a fluorescent calcium indicator. One mL of 77 mg/mL probenecid (Invitrogen) was added to 100 mL of a calcium indicator solution to prepare a solution (loading solution) mixed with a 20 mM HEPES-containing Hanks' balanced salt solution (HBSS) in equal proportions. 200 μL of the loading solution was added to the cells from which the culture solution was removed, and the cells were cultured in a CO2 incubator for 1 hour. The subject compound was diluted with a 20 mM HEPES-containing HBSS and was added to the cells by 50 μL, and the fluctuation of the Ca^2+ concentration was measured by an intracellular ion analyzer. The EC50 value of the subject compound was calculated using the dose-response curve of fluorescence intensity variation.
# T1 sequence (O14842 whole entry): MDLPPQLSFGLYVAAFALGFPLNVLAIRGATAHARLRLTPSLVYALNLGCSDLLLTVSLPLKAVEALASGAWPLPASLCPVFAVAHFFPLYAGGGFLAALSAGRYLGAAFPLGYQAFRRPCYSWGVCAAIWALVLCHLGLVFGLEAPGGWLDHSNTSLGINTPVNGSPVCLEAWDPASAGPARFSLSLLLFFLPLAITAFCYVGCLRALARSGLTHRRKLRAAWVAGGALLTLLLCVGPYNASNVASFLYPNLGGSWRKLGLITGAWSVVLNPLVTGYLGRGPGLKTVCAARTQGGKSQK
row,Compound,EC50
1,"Cc1cc(OCCCN2CCCC2=O)nc(C)c1-c1cccc(COc2ccc(-c3cc(O)n[s+]3[O-])cc2)c1 (stereo not drawn) [Example 35, 5-(4-((3-(2,4-dimethyl-6-(3-(2-oxopyrrolidin-1-yl)propoxy)pyridin-3-yl)phenyl)methoxy)phenyl)isothiazol-3-ol 1-oxide(A)]",< 300 nM
2,"C[C@@H](Oc1ccc(-c2cc(O)n[s+]2[O-])cc1)c1cccc(Br)c1 (stereo partly drawn) [Example 88, 5-[4-[(1R)-1-(3-bromophenyl)ethoxy]phenyl]isothiazol-3-ol 1-oxide(A)]",300 to 3000 nM
3,"Cc1cc(OCCCO)nc(C)c1-c1cccc(COc2ccc(-c3cc(O)n[s+]3[O-])cc2)c1 (stereo not drawn) [Example 49, 5-(4-((3-(2,4-dimethyl-6-(3-hydroxypropoxy)pyridin-3-yl)phenyl)methoxy)phenyl)isothiazol-3-ol 1-oxide(A)]",< 300 nM
4,"Cc1ncccc1Oc1cccc2c1CCC2Oc1ccc(-c2cc(O)n[s+]2[O-])cc1 (stereo not drawn) [Example 125, 5-[4-[[4-(2-methylpyridin-3-yl)oxy-2,3-dihydro-1H-inden-1-yl]oxy]phenyl]isothiazol-3-ol 1-oxide(A)]",< 300 nM
5,"[O-][s+]1nc(O)cc1-c1ccc(O[C@@H]2CCc3c(-c4cccnc4C(F)(F)F)cccc32)cc1 (single isomer, unassigned) [Example 117]",300 to 3000 nM
6,"[O-][s+]1nc(O)cc1-c1ccc(OCc2cccc(Cl)c2)cc1 (single isomer, unassigned) [Example 89, 5-[4-[(3-chlorophenyl)methoxy]phenyl]isothiazol-3-ol 1-oxide(A)]",< 300 nM
7,"Cc1nc(OCCC(C)(C)O)ccc1-c1cccc(COc2ccc(-c3cc(O)n[s+]3[O-])cc2)c1C (stereo not drawn) [Example 11, 5-(4-((3-(6-(3-hydroxy-3-methylbutoxy)-2-methylpyridin-3-yl)-2-methylphenyl)methoxy)phenyl)isothiazol-3-ol 1-oxide]",< 300 nM
8,"Cc1cc(OCCCS(C)(=O)=O)cc(C)c1-c1cccc(COc2ccc(-c3cc(O)n[s+]3[O-])cc2)c1C (stereo not drawn) [Example 23, 5-(4-((3-(2,6-dimethyl-4-(3-(methylsulfonyl)propoxy)phenyl)-2-methylphenyl)methoxy)phenyl)isothiazol-3-ol 1-oxide(A)]",< 300 nM
9,Cc1cc(OCCCN2CCCC2=O)cc(C)c1-c1cccc(COc2ccc(-c3cc(O)n[s+]3[O-])cc2)c1 (stereo not drawn) [Example 33],< 300 nM
10,"[O-][s+]1nc(O)cc1-c1ccc(OCCc2cccc(Oc3ccccc3)c2)cc1 (stereo not drawn) [Example 106, 5-[4-[2-(3-phenoxyphenyl)ethoxy]phenyl]isothiazol-3-ol 1-oxide]",300 to 3000 nM
11,"[O-][s+]1nc(O)cc1-c1ccc(OCc2cccc(Cl)c2Cl)cc1 (stereo not drawn) [Example 86, 5-[4-[(2,3-dichlorophenyl)methoxy]phenyl]isothiazol-3-ol 1-oxide(A)]",< 300 nM
12,"Cc1c(Br)cccc1COc1ccc(-c2cc(O)n[s+]2[O-])cc1 (stereo not drawn) [Example 91, 5-[4-[(3-bromo-2-methylphenyl)methoxy]phenyl]isothiazol-3-ol 1-oxide(A)]",300 to 3000 nM
13,"[O-][s+]1nc(O)cc1-c1ccc(OC2CCc3c(OC4CCOCC4)cccc32)cc1 (stereo not drawn) [Example 132, 5-[4-[[4-(oxan-4-yloxy)-2,3-dihydro-1H-inden-1-yl]oxy]phenyl]isothiazol-3-ol 1-oxide(A)]",< 300 nM
14,"Cc1nc(OCCCN2CCCC2=O)nc(C)c1-c1cccc(COc2ccc(-c3cc(O)n[s+]3[O-])cc2)c1C (stereo not drawn) [Example 37, 5-(4-((3-(4,6-dimethyl-2-(3-(2-oxopyrrolidin-1-yl)propoxy)pyrimidin-5-yl)-2-methylphenyl)methoxy)phenyl)isothiazol-3-ol 1-oxide(A)]",300 to 3000 nM
15,"[O-][s+]1nc(O)cc1-c1ccc(O[C@@H]2CCc3c(C4=CCOCC4)cccc32)cc1 (stereo partly drawn) [Example 121, 5-[4-[[(1R)-4-(3,6-dihydro-2H-pyran-4-yl)-2,3-dihydro-1H-inden-1-yl]oxy]phenyl]isothiazol-3-ol 1-oxide(A)]",300 to 3000 nM
16,"Cc1cc(OCCCN)cc(C)c1-c1cccc(COc2ccc(-c3cc(O)n[s+]3[O-])cc2)c1 (stereo not drawn) [Example 78, 5-[4-[[3-[4-(3-aminopropoxy)-2,6-dimethylphenyl]phenyl]methoxy]phenyl]isothiazol-3-ol 1-oxide(A)]",< 300 nM
17,"[O-][s+]1nc(O)cc1-c1ccc(OC2CCc3c(Cl)cccc32)cc1 (stereo not drawn) [Example 68, 5-(4-(4-chloro-2,3-dihydro-1H-inden-1-yloxy)phenyl)isothiazol-3-ol 1-oxide(A)]",< 300 nM
18,"CC1(C)CCC(C)(C)c2cc(COc3ccc(-c4cc(O)n[s+]4[O-])cc3)ccc21 (stereo not drawn) [Example 85, 5-[4-[(5,5,8,8-tetramethyl-6,7-dihydronaphthalen-2-yl)methoxy]phenyl]isothiazol-3-ol 1-oxide(A)]",< 300 nM

row,Compound,EC50
1,"Cc1cccc(C)c1-c1cccc(COc2ccc(-c3cc(O)n[s+]3[O-])cc2)c1 (stereo not drawn) [Example 8, 5-(4-((3-(2,6-dimethylphenyl)phenyl)methoxy)phenyl)isothiazol-3-ol 1-oxide]",< 300 nM
2,"[O-][s+]1nc(O)cc1-c1ccc(OC2CCc3cc(Cl)ccc32)cc1 (stereo not drawn) [Example 6, 5-(4-(5-chloro-2,3-dihydro-1H-inden-1-yloxy)phenyl)isothiazol-3-ol 1-oxide]",300 to 3000 nM
3,"Cc1cccc(C)c1N1CCC[C@H](COc2ccc(-c3cc(O)n[s+]3[O-])cc2)C1 (stereo partly drawn) [Example 96, 5-[4-[[(3S)-1-(2,6-dimethylphenyl)piperidin-3-yl]methoxy]phenyl]isothiazol-3-ol 1-oxide (A)]",< 300 nM
4,"Cc1cc(OCCC(C)(C)O)cc(C)c1-c1cccc(COc2ccc(-c3cc(O)n[s+]3[O-])cc2)c1C (stereo not drawn) [Example 13, 5-(4-((3-(2,6-dimethyl-4-(3-hydroxy-3-methylbutoxy)phenyl)-2-methylphenyl)methoxy)phenyl)isothiazol-3-ol 1-oxide]",< 300 nM
5,"[O-][s+]1nc(O)cc1-c1ccc(O[C@@H]2CCc3c(C4CC4)cccc32)cc1 (single isomer, unassigned) [Example 109]",< 300 nM
6,"Cc1cc(OCCCS(C)(=O)=O)cc(C)c1-c1cccc(COc2ccc(-c3cc(O)n[s+]3[O-])cc2)c1 (stereo not drawn) [Example 44, 5-(4-((3-(2,6-dimethyl-4-(3-(methylsulfonyl)propoxy)phenyl)phenyl)methoxy)phenyl)isothiazol-3-ol 1-oxide(A)]",< 300 nM
7,"[O-][s+]1nc(O)cc1-c1ccc(O[C@@H]2CCc3c(-c4ccc(N5CCCCC5)nc4)cccc32)cc1 (single isomer, unassigned) [Example 118]",< 300 nM
8,"[O-][s+]1nc(O)cc1-c1ccc(O[C@@H]2CCc3c(Br)cccc32)cc1 (stereo partly drawn) [Example 66, 5-(4-((1R)-4-bromo-2,3-dihydro-1H-inden-1-yloxy)phenyl)isothiazol-3-ol 1-oxide(A)]",< 300 nM
9,"[O-][s+]1nc(O)cc1-c1ccc(OCc2cccc(N3CCC(F)(F)CC3)c2)cc1 (single isomer, unassigned) [Example 93, 5-[4-[[3-(4,4-difluoropiperidin-1-yl)phenyl]methoxy]phenyl]isothiazol-3-ol 1-oxide(A)]",300 to 3000 nM
10,"[O-][s+]1nc(O)cc1-c1ccc(O[C@@H]2CCc3c(-c4cccnc4)cccc32)cc1 (single isomer, unassigned) [Example 111]",< 300 nM
11,"Cc1cccc(C)c1-c1cccc(COc2ccc(C3=CC(O)=NS3(=O)=O)cc2)c1 [Example 9, 5-(4-((3-(2,6-dimethylphenyl)phenyl)methoxy)phenyl)isothiazol-3-ol 1,1-dioxide]",300 to 3000 nM
12,"Cc1nc(OCCO)ccc1-c1cccc(COc2ccc(-c3cc(O)n[s+]3[O-])cc2)c1C (stereo not drawn) [Example 52, 5-(4-((3-(2-methyl-6-(2-hydroxyethoxy)pyridin-3-yl)-2-methylphenyl)methoxy)phenyl)isothiazol-3-ol 1-oxide(A)]",300 to 3000 nM
13,"[O-][s+]1nc(O)cc1-c1ccc(OC2CCc3c(OC4CCCCC4)cccc32)cc1 (stereo not drawn) [Example 131, 5-[4-[(4-cyclohexyloxy-2,3-dihydro-1H-inden-1-yl)oxy]phenyl]isothiazol-3-ol 1-oxide(A)]",< 300 nM
14,"[O-][s+]1nc(O)cc1-c1ccc(OC2CCc3c2cccc3C(F)(F)F)cc1 (stereo not drawn) [Example 69, 5-(4-(4-trifluoromethyl-2,3-dihydro-1H-inden-1-yloxy)phenyl)isothiazol-3-ol 1-oxide(A)]",< 300 nM
15,"[O-][s+]1nc(O)cc1-c1ccc(OC2CCOc3cc(C(F)(F)F)ccc32)cc1 (stereo not drawn) [Example 83, 5-[4-[[7-(trifluoromethyl)-3,4-dihydro-2H-chromen-4-yl]oxy]phenyl]isothiazol-3-ol 1-oxide(A)]",300 to 3000 nM
16,"Cc1cc(OCCO)cc(C)c1-c1cccc(COc2ccc(-c3cc(O)n[s+]3[O-])cc2)c1C (stereo not drawn) [Example 51, 5-(4-((3-(2,6-dimethyl-4-(2-hydroxyethoxy)phenyl)-2-methylphenyl)methoxy)phenyl)isothiazol-3-ol 1-oxide(A)]",< 300 nM
17,"Cc1cc(OC[C@H](O)CO)cc(C)c1-c1cccc(COc2ccc(-c3cc(O)n[s+]3[O-])cc2)c1 (stereo partly drawn) [Example 55, 5-(4-((3-(4-((2R)-2,3-dihydroxypropoxy)-2,6-dimethylphenyl)phenyl)methoxy)phenyl)isothiazol-3-ol 1-oxide(A)]",< 300 nM
18,"[O-][s+]1nc(O)cc1-c1ccc(OC2CCc3c(Oc4ccccc4)cccc32)cc1 (stereo not drawn) [Example 124, 5-[4-[(4-phenoxy-2,3-dihydro-1H-inden-1-yl)oxy]phenyl]isothiazol-3-ol 1-oxide(A)]",< 300 nM
